US8530507B2, “Use of levo-ornidazole in the preparation of anti-anaerobic bacteria infection drugs” (priority 2005, dated 2013)

Assays:
Beagle dogs = conditions: dog, in vivo, iv, 200 mg/kg
Source text: 2. Toxicity Test in Beagle Dogs (Non-Rodent) After Intravenous Administration of L-ornidazole for Two Weeks
Beagle dogs, 4 dogs in each group with half females and half males, were divided into L-, D-, and racemic ornidazole groups.

mice [1] = experiment: Effect on the coordination of balancing in mice; format: in vivo; conditions: intravenous injection
Protocol: Experiments were conducted in 9 administration groups, L-, D- and racemic ornidazole were administered to them at doses of 40, 80 and 160 mg/kg. Positive control group received chlorpromazine at a dose of 3 mg/kg.

mice [2] = experiment: Hypnotic effect of intravenous injection in mice (righting reflex); format: in vivo; conditions: mice, within 30 minutes
Protocol: White mice, half males and half females, fasted for eight hours. The disappearance of righting reflex in mice was observed. The number of animals who lost their righting reflex was recorded in 30 minutes after drug administration.

mice [3] = experiment: Effect on the hypnotic effect induced by sodium thiopental in mice; conditions: 40 mg/kg sodium thiopental i.p. 30 minutes later
Protocol: The same volume of 0.9% sodium chloride injection containing propylene glycol was administered in the vehicle control group. 30 minute after drug administration, 40 mg/kg of sodium thiopental was administered to mice by intraperitoneal injection. The time for the loss of righting reflex and the time for the recovery were recorded. The injection volume was 0.2 ml/10 g, the administration rate was 0.2 ml/10 sec.

mice [4] = experiment: Effects on spontaneous activities in mice; format: in vivo; conditions: for spontaneous activity compared with the vehicle control group: recorded at 0.5, 1, 2, 3 and 4 hours
Protocol: Chlorpromazine was administered at dose of […] in the positive control group, and the same volume of propylene glycol containing 0.9% sodium chloride injection was administered in the vehicle control group. Spontaneous activity was recorded at 0.5, 1, 2, 3 and 4 hours after drug administration. The injection volume was 0.2 ml/10 g and the administration rate was 0.2 ml/10 sec.

[5] = In vivo pharmacokinetics in Beagle dogs
Protocol: The clinical dose of ornidazole is 500 mg for human. By calculating, based on body surface area, the pharmacokinetic experimental dose in Beagle dogs was 13 mg/kg in vivo. Six adult beagle dogs (half males and half females, body weight of 9˜11.5 kg) were randomly divided into three groups. According to crossover design, intravenous injection of L-, D-, and racemic ornidazole were administered in turn to each dog every other week (with one week washout period in between). 2 ml of blood was collected from the vein located at the forelimb of the dogs before drug administration and 0.083, 0.5, 1.0, 2.0, 4.0, 6.0, 8.0, 12.0, 16.0, 24.0 hours after drug administration, which was then placed in the heparinized tube, followed by centrifugation to obtain the plasma. Plasma concentration of drug was determined by HPLC. Pharmacokinetics parameters were estimated using the non-compartmental models. The corresponding pharmacokinetics parameters were obtained by BAPP2.0 using the data of plasma concentration of blood with time obtained above.

[6] = beagle dogs, individual intravenous dose 13 mg/kg, plasma

Cc1ncc([N+](=O)[O-])n1C[C@@H](O)CCl [D-ornidazole]
food intake and body weight (Beagle dogs): significantly inhibited
histological examination of organs (Beagle dogs): significant pathological changes were not observed
manifestations (toxicity and side effects) (Beagle dogs): drooling, vomiting, myasthenia of limbs, astasia, hyperspasmia
number of Purkinje cells in cerebellum (histological examination) (Beagle dogs): significantly reduced
effect on the coordination and balance (number of falling animals) (mice [1]; 160 mg/kg): significant effect
effect on the coordination and balance, compared with the vehicle control group (mice [1]; doses of 40 and 80 mg/kg): no significant effect
number of mice with loss in righting reflex (mice [2]; individual dose of 160 mg/kg intravenous): 10 mice
loss in righting reflex (mice [2]; individual dose of 40 or 80 mg/kg intravenous): No loss in righting reflex
duration of sleeping induced by sodium thiopental, compared with the vehicle control group (mice [3]; 40 mg/kg intravenous): significantly extended
sleep latency induced by sodium thiopental, compared with the vehicle control group (mice [3]; 40 mg/kg intravenous): significantly reduced
duration of sleeping induced by sodium thiopental, compared with the vehicle control group (mice [3]; 80 mg/kg intravenous): significantly extended
sleep latency induced by sodium thiopental, compared with the vehicle control group (mice [3]; 80 mg/kg intravenous): significantly reduced
recovery of spontaneous activity (mice [4]; 40 mg/kg intravenous): gradually become normal after 3 hours
spontaneous activity compared with the vehicle control group (mice [4]; 40 mg/kg intravenous): reduced significantly at 0.5, 1 and 2 hours
recovery of spontaneous activity (mice [4]; 80 mg/kg intravenous): not recovered in 4 hours
spontaneous activity compared with the vehicle control group (mice [4]; 80 mg/kg intravenous): reduced significantly at 0.5, 1, 2, 3 and 4 hours
recovery of spontaneous activity (mice [4]; 160 mg/kg intravenous): not recovered in 4 hours
spontaneous activity compared with the vehicle control group (mice [4]; 160 mg/kg intravenous): reduced significantly at 0.5, 1, 2, 3 and 4 hours
AUC0-t (area under curve) [5, 6]: 66570 ± 10510 ng·h/mL
Cl (clearance) [5, 6]: 1.59 ± 0.28 L/h
MRT (mean retention time of drugs) [5, 6]: 8.74 ± 3.30 h
Vβ (elimination volume of distribution) [5, 6]: 13.59 ± 4.99 L
in vivo transformation of enantiomers between L- and D-ornidazole ([5]; dog, in vivo, iv): not occurred
t1/2 (half life) ([5]; dog, in vivo, iv, 13 mg/kg): 6.06 ± 2.29 h
